Data on one compound can be found in patent US20200260697A1, “METHODS OF MOUSE CLINICAL TRIAL” (CROWN BIOSCIENCE, INC. (TAICANG), priority 2016, published 2020).

Assay type in all cases: in vivo, mouse
For experiment [1], the system named is 42 PDXs including 13 esophageal cancers (ES), 21 gastric cancers (GA) and 8 lung cancers(LU). The experiment in a line: MCT evaluating cisplatin response on 42 PDXs, tumor volume analysed by linear mixed model (Equation 7) and AUC ratio. As to the method:
In a MCT, tumor volume is measured at multiple time points for each mouse, and these tumor volumes are often correlated, as in a typical longitudinal study. As shown above, almost all growth curves under vehicle treatment can be modeled by the linear Equation 2, and under drug treatment, about 80% of the growth curves are linear or close to linear. If we introduce a quadratic term on the day (x^2), more than 90% of the growth curves can be fitted with R^2>0.7, and 97% with R^2>0.4. With such strong linearity, the linear mixed models (LMM) is a proper and powerful tool to analyze the clustered longitudinal data from MCTs (West B T et al., “Linear Mixed Models: A Practical Guide Using Statistical Software, Second Edition”, Crc Press (2014)). Specifically, a 3-level model is appropriate, in which PDX and mouse are random factors, and covariates at the PDX-level and mouse-level can be included (FIG. 9A). We used an MCT to illustrate the application of LMMs for drug response evaluation and biomarker discovery. The MCT evaluated cisplatin response (4 mg/kg, daily dosing for 3 weeks) on 42 PDXs including 13 esophageal cancers (ES), 21 gastric cancers (GA) and 8 lung cancers(LU), each PDX had 5-9 mice (FIGS. 9B-C). A general model was specified for tumor volume, in log scale, at day t for mouse i within PDX j as follows: [formula] The model used vehicle in ES as the reference. There were […], β0 for the intercept, β1 for the time slope, β2 and β3 quantify the growth rate difference of GA and LU with respect to ES, β4 measures cisplatin effect, β5 and β6 check if GA and LU respond differently to cisplatin. The model also had 5 random effects, including the residual ϵtij. In a MCT, we can view the cohort of PDXs as random samples from a PDX or patient population, therefore, they have different growth rates, which is modeled by the random effect u1j associated with the time slope. Similarly, we model the growth difference for mice within a PDX by the random effect u1i|j. Mice and PDX may also have different starting tumor volumes, which are modeled by the two random effects on intercept: u0j and u0i|j. Therefore, our LMM captures both PDX-level and mouse-level growth heterogeneity under vehicle and drug treatments. […] From the model, we can get fitted cancer specific growth curves, as well as PDX and mouse specific growth curves. On average, cisplatin reduces tumor growth rate by about 38%.

Experiment [2] has the same test system. Description: Survival analysis (PFS, OS) of the cisplatin MCT dataset, additive frailty model and proportional hazard Cox model. To be noted: cisplatin versus vehicle. An excerpt: Survival analysis are the most important endpoints of human clinical trials and can also be potentially adapted to MCT by first defining “clinical endpoint” of PFS (progress-free survival) and OS (overall survival) in preclinical setting. By the RECIST standard (Therasse P et al., J Natl Cancer Inst (2000) 92(3):205-16), we define PFS as the time until the starting tumor volume increases by 73%, and define OS as the time until the starting tumor volume triples, at which the tumor volume is usually between 300-600 mm^3, depending on initial tumor volumes. As we have shown in examples above, tumors already start exponential growth before it reaches 600 mm^3. The definitions are more of a custom and can certainly be adjusted otherwise. For example, Gao et al defined PFS as the time until tumor volume doubles (Gao H et al., Nat Med (2015) 21(11):1318-25). We can also define OS as the time until the starting tumor volume quadruples and so on.
In human oncology trails, survival time of patients is usually assumed to be independent of each other. […] Mice have correlated survival time both within a PDX and between treatments (FIGS. 10A-B). There is heterogeneity on hazard and drug response for PDXs. We used an additive frailty model to fit the survival data in MCTs (Rondeau V et al., J Statistical Software (2012) 47(4):1-28; Hanagal D D, Statistical Methods in Medical Research (2015) 24(6):936-36). In this model, the hazard function for the j-th mouse of the i-th PDX is
hij(t)=h0(t)exp(ui+(w+vi)Tij+β^TXi)
where h0(t) is the baseline hazard function. Parameter ui is the random effect (the first frailty term) associated with the i-th PDX that captures its characteristic growth, thus survival behavior, without drug treatment. Parameter vi is the random effect (the second frailty term) associated the i-th PDX that depicts its drug response deviating from the mean drug effect w of all PDXs. Tij is the treatment variable and it equals 0 for the vehicle treatment and 1 for the drug treatment; Xi is a vector for the PDX's covariates, e.g., cancer type and gene expression; β^T is the parameter vector quantifying the fixed effects of the covariates. The two random effects ui and vi assume a bivariate normal distribution with zero means, variance σ^2 and τ^2, and covariance ρστ. If the two random effects ui and vi are removed, the model reduces to the proportional hazard Cox model.
We used the cisplatin dataset in the previous example to illustrate modeling by the additive frailty model, using the R package frailtypack (Rondeau V et al., J Statistical Software (2012) 47(4):1-28). For simplicity, we used treatment as the sole covariate. By Equation 10, we observed that both frailty terms are significant larger than 0 (Wald test p-value<0.05) for PFS and OS analyses. […]

In experiment [3] the test system is gastric cancer PDXs. The experiment in a line: LMM (Equation 8) of the cisplatin dataset with ERCC1 expression as covariate. To be noted: LMM Equation 8, gastric cancer PDXs. An excerpt: The LMM can readily incorporate PDX-level genomic covariates, e.g. gene expression and mutation, for biomarker analysis. We used the same dataset to examine if ERCC1 expression is related to cisplatin response in gastric cancer by fitting the following LMM:
lnVtij=β0+β1×Dayt+β2×Dayt×ERCC1j+β3×Dayt×Treatmentij+β4×Dayt×ERCC1j×Treatmentij+u0j+u1j×Dayt+u(0i|j)+u(1i|j)×Dayt+ϵtij (8)
In this model, β2 evaluates ERCC1 expression as a prognostic biomarker since it is for both vehicle and cisplatin groups. […] The coefficient β4 examines ERCC1 expression as a predictive biomarker for cisplatin. The fitted value of β4 is 0.0136, close to that of β2. Therefore, high ERCC1 expression acts adversely to cisplatin treatment (FIG. 9E). The parameter β3 quantifies cisplatin treatment and is estimated to be −0.0879. Results from our LMM may have clinical implications.

With `N.N.[Cl][Pt][Cl]` [cisplatin], the “response across cancer types” value in experiment [1] (ES, GA and LU PDXs, p-values for β5 and β6 >0.05) is given as “comparable responses on the 3 cancer types”. Moreover, in experiment [1] (LMM Equation 7, vehicle in ES as reference, REML estimate, second figure not defined, p-value 1.2E−19), the “β4 (Day × Treatment) estimate, cisplatin effect on growth rate of ln tumor volume” value is −0.0282(0.0031). For the same compound, the “β5 (Day × CancerTypeGA × Treatment) estimate” value in experiment [1] (LMM Equation 7, checks if GA responds differently to cisplatin than ES, REML estimate, second figure not defined, p-value 0.35) is on record as 0.0037(0.0039). Moreover, in experiment [1] (LMM Equation 7, checks if LU responds differently to cisplatin than ES, REML estimate, second figure not defined, p-value 0.84), the “β6 (Day × CancerTypeLU × Treatment) estimate” value was −0.0011(0.0052). Moreover, the “reduction of tumor growth rate, on average (LMM)” value in experiment [1] (cisplatin 4 mg/kg, daily dosing for 3 weeks, 42 PDXs, 5-9 mice each, LMM Equation 7) was “about 38%”. Besides, the “reduction of tumor growth rate by the AUC ratio method” value in experiment [1] (cisplatin 4 mg/kg, daily dosing for 3 weeks, 42 PDXs, AUC ratio method) came to 36%. Moreover, in experiment [2] (additive frailty model, OS = time until starting tumor volume triples), the “hazard ratio (HR) for OS” value was 0.21 (95% CI: 0.15-0.31). Moreover, the “hazard ratio (HR) for PFS” value in experiment [2] (additive frailty model, PFS = time until starting tumor volume increases by 73%) is on record as 0.40 (95% CI: 0.31-0.50). For the same compound, in experiment [2] (proportional hazard Cox model), the “OS HR” value is 0.36 (95% CI: 0.28-0.46) and the “PFS HR” value is 0.48 (95% CI: 0.40-0.58). Also, in experiment [3] (ERCC1 expression as covariate), the “β3 (Day × Treatment), quantifies cisplatin treatment” value is −0.0879. In addition, the “β4 (Day × ERCC1 × Treatment), ERCC1 expression as predictive biomarker for cisplatin” value in experiment [3] (positive value: high ERCC1 expression acts adversely to cisplatin treatment) is on record as 0.0136.
